Data: patent EP0260057A2, “2-Oxo-4-carboxy-pyrimidines” (THE UNIVERSITY OF MELBOURNE, priority 1986, dated 1988)

Target: T1, dihydroorotase (Mesocricetus auratus, UniProt P08955)
T1 construct: purified by an established procedure from a mutant hamster cell line which overproduces the target enzyme; endogenous in cells; host or cells: mutant hamster cell line overproducing the enzyme more than 100-fold; enzyme purified from these cells
Assay: Dihydroorotase inhibition assay (conversion of L-[14C]dihydroorotate to N-[14C]carbamyl-L-aspartate)
Type: biochemical, hamster
Protocol: Dihydroorotase has been purified by an established procedure from a mutant hamster cell line which overproduces the target enzyme by more than 100-fold (P.F. Coleman, D.P. Suttle and G.R. Stark (1978) in "Methods in Enzymology" (P.A. Hoffee and M.E. Jones eds.) Vol. 51, pp 121-134, Academic Press, New York; P.F. Coleman D.P. Suttle and G.R. Stark (1977) J. Biol. Chem. 252, 6379-6385). Purified dihydroorotase was stored at -70°C in a solution containing 30% (v/v) dimethyl sulphoxide, 5% (v/v) glycerol, 50 mM KCl, 4 mM L-glutamine, 4 mM L-aspartate, 0.1 mM EDTA and 1 mM dithiothreitol.
Dihydroorotase catalyses the conversion of N-carbamyl-L-aspartate to L-dihydroorotate. To assess the effects of a potential inhibitor of this target enzyme, the rate of conversion of L-dihydroorotate to N-carbamyl-L-aspartate catalysed by dihydroorotase was measured in the presence of a range of concentrations of the inhibitor. For a tight-binding inhibitor like TDHO, extremely low concentrations are sufficient to abolish all dihydroorotase activity. To illustrate the inhibitory potency of TDHO, results of the following experiment are presented. Assay mixtures for dihydroorotase activity contained in a total volume of 25 ul, 50 mM K.Hepes buffer pH 7.4, 5% (v/v) glycerol 12.5 µM L-[¹⁴C]dihydroorotate (specific radioactivity 47.1 Ci/mol), and TDHO concentrations ranging from 0 - 1.50 µM containing a 30-fold molar excess of ZnCl₂. Catalysis was initiated by addition of 39 ng of dihydroorotase. The rate of conversion of L-[¹⁴C]dihydroorotate to N-[¹⁴C]carbamyl-L-aspartate was measured in the presence of different concentrations of TDHO, using established procedures (R.I. Christopherson, T. Matsuura and M.E. Jones (1978) Analytical Biochemistry 100, 184-187). The assay mixture lacking TDHO had the fastest reaction velocity while the lowest velocity measured was in the presence of the highest concentration of TDHO. The results data are plotted as the reciprocal of reaction velocity (l/v) versus the concentration of TDHO from which a value for the dissociation constant (Ki value) for TDHO from the enzyme-TDHO complex can be obtained.
Assay mixtures for dihydroorotase activity contained in a total volume of 25 µl:50 mM K.Hepes buffer pH 7.4, 5% (v/v) glycerol, 12.5 µM L-[¹⁴C]dihydroorotate (specific radioactivity 47.1 Ci/mol), and HDDP concentrations ranging from 0 - 5 µM. Catalysis was initiated by addition of 39 ng of dihydroorotase. The rate of conversion of L-[¹⁴C]dihydroorotate to N-[¹⁴C]carbamyl-L-aspartate was measured in the presence of different concentrations of HDDP, in a similar manner to Test 3.

T1 sequence (P08955 whole entry): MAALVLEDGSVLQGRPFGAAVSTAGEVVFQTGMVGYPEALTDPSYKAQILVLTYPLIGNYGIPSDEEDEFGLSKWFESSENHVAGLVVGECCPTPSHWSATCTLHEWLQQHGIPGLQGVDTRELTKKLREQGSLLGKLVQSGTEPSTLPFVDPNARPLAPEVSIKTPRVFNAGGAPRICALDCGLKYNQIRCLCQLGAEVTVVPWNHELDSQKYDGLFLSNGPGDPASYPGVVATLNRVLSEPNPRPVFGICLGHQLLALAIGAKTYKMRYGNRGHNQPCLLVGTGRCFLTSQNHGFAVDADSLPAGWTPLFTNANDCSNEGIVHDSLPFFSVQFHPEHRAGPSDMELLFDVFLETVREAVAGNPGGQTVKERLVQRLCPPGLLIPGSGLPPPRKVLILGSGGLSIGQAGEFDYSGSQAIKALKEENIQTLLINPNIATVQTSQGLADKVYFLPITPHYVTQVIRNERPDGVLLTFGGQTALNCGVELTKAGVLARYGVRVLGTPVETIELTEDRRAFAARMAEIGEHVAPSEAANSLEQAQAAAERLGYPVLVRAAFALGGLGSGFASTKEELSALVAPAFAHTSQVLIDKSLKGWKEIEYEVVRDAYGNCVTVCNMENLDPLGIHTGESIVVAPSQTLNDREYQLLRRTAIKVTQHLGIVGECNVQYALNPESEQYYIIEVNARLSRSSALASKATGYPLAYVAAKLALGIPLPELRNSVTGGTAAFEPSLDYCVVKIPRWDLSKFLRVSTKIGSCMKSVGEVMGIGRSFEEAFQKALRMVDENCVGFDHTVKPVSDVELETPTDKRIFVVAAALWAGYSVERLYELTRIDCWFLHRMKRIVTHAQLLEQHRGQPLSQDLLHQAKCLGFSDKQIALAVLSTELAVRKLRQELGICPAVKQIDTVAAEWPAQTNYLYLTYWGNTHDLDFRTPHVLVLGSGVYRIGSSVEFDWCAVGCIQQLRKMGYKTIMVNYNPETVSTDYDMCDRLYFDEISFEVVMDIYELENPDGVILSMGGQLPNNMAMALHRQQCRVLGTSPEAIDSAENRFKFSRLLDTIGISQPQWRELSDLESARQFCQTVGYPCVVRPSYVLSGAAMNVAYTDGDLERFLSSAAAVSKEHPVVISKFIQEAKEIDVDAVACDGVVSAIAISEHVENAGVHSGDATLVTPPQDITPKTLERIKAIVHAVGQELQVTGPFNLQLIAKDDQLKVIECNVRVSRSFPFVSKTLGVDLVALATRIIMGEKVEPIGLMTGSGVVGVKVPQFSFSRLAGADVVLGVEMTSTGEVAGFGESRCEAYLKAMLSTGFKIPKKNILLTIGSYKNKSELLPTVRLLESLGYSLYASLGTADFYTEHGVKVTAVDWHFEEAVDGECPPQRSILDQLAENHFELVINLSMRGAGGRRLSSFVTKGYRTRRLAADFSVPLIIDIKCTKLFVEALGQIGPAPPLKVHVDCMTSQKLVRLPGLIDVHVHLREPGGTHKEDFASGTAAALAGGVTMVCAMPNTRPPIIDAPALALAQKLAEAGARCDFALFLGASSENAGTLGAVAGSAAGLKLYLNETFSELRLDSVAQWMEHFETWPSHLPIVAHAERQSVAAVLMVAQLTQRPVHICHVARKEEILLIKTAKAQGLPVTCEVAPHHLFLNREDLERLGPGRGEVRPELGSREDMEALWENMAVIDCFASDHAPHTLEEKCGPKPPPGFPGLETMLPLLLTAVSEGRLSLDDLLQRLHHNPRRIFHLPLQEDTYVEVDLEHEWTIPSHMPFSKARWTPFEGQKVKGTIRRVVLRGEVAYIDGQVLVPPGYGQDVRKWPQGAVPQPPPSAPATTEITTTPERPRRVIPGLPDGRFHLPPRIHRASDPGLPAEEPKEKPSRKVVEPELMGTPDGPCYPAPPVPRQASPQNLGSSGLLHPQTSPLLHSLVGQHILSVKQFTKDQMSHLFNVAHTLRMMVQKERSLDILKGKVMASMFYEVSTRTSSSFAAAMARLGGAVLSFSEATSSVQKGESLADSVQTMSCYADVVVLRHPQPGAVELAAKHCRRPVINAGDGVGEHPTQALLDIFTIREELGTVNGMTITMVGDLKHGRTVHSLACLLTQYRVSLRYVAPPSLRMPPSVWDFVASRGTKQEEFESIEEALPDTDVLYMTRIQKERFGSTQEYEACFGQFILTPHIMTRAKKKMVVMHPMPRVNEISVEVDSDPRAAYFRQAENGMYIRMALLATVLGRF

## ZnCl₂ [reference compound]
ZnCl₂ alone, at the same concentrations as in the TDHO experiment
  inhibitory effect: moderate inhibitory effect

## O=C1NC(C(=O)O)=CC(C(=O)O)N1 (stereo not shown) [HDDP, 2-oxo-1,2,3,6-tetrahydropyrimidine-4,6-dicarboxylic acid]
HDDP 0 - 5 µM, pH 7.4, 12.5 µM L-[¹⁴C]dihydroorotate, no ZnCl₂ mentioned
  Ki: 480 nM

## O=C1NC(=S)CC(C(=O)O)N1 (stereo not shown) [TDHO, Hexahydro-2-oxo-6-thioxo-4-pyrimidinecarboxylic acid]
TDHO containing a 30-fold molar excess of ZnCl₂, pH 7.4, 12.5 µM L-[¹⁴C]dihydroorotate
  Ki: 53 nM
Free acid of TDHO, in the absence of Zn²⁺
  Ki: 4500 nM
